The results in this text go back to US9493487B2, “3-(1H-imidazo[4,5-C]pyridin-2-YL)-1H-pyrazolo[3,4-B]pyridine and therapeutic uses thereof” (Samumed, LLC, priority 2014, dated 2016).

In this assay the test system is Wnt activity (Sp5-Luc reporter, SW480 colon carcinoma cells). In words: Sp5-Luc Wnt reporter gene assay in SW480 colon carcinoma cells. It is filed as cell-based. To be noted: Homo sapiens; SW480 cells stably expressing Sp5-Luc reporter; 42 h incubation; BrightGlo luminescence normalized to DMSO. From the text: The screening assay for Wnt activity is described as follows. Reporter cell lines can be generated by stably transducing cancer cell lines (e.g., colon cancer) or primary cells (e.g., IEC-6 intestinal cells) with a lentiviral construct that includes a Wnt-responsive promoter driving expression of the firefly luciferase gene.
SW480 colon carcinoma cells were transduced with a lentiviral vector expressing luciferase with a human Sp5 promoter consisting of a sequence of eight TCF/LEF binding sites. SW480 cells stably expressing the Sp5-Luc reporter gene and a hygromycin resistance gene were selected by treatment with 150 μg/ml of hygromycin for 7 days. These stably transduced SW480 cells were expanded in cell culture and used for all further screening activities. For Sp5-Luc reporter gene assays, the cells were plated at 10,000 cells/well in 96-well plates with growth medium containing 10% fetal calf serum and incubated overnight at 37° C. and 5% CO2. Each compound was dissolved in DMSO as a 10 mM stock in standard j-vials and used to prepare compound source plates in dose-response format with 3-fold serial dilutions and a 10 mM top concentration. Compound transfer from serially diluted source plates to assay plates containing the cells was accomplished using a pintool (Multimek 96, Beckman equipped with V&P Scientific FP1S50H pins) based liquid handling protocol. This protocol used a slotted pin to transfer 50 nl of compound from a source plate well to an assay plate well containing 50 μl of cells in growth medium. […] Control wells received 50 nl of DMSO treatment for normalization and calculating IC50 values. The treated cells were incubated at 37° C. and 5% CO2 for an additional forty-two hours. Following incubation, the growth medium was removed and 50 μl of BrightGlo luminescence reagent (Promega) was added to each well of the 96-well assay plates. The plates were placed on an orbital shaker for 5 min and then luminescence was quantified on the Victor3 (Perkin Elmer) plate reader. Readings were normalized to DMSO only treated cells, and normalized activities were utilized for IC50 calculations using the dose-response log (inhibitor) vs. response-variable slope (four parameters) nonlinear regression feature available in GraphPad Prism 5.0 or 6.0.
As usually defined, the IC50 is the midpoint of a concentration-inhibition curve. A lower IC50 goes with greater potency in that assay. `Fc1cccc(-c2nccc3[nH]c(-c4n[nH]c5ncc(-c6cncc(CN7CCC(F)(F)C7)c6)cc45)nc23)c1` [Compound 25, 5-(5-((3,3-Difluoropyrrolidin-1-yl)methyl)pyridin-3-yl)-3-(4-(3-fluorophenyl)-1H-imidazo[4,5-c]pyridin-2-yl)-1H-pyrazolo[3,4-b]pyridine] showed a half-maximal inhibitory concentration (IC50) of 0.0339 µM.

`Fc1ccc(-c2nccc3[nH]c(-c4n[nH]c5ncc(-c6cncnc6)cc45)nc23)cc1` [Compound 52, 3-(4-(4-Fluorophenyl)-1H-imidazo[4,5-c]pyridin-2-yl)-5-(pyrimidin-5-yl)-1H-pyrazolo[3,4-b]pyridine] returned an IC50 of 0.155 µM.

`c1cncc(-c2cnc3[nH]nc(-c4nc5c(-c6cccnc6)nccc5[nH]4)c3c2)c1` [Compound 82, 5-(Pyridin-3-yl)-3-(4-(pyridin-3-yl)-1H-imidazo[4,5-c]pyridin-2-yl)-1H-pyrazolo[3,4-b]pyridine] came in with a half-inhibitory concentration (IC50) of 0.0419 µM.

As for `c1cncc(-c2nccc3[nH]c(-c4n[nH]c5ncc(-c6cncc(CN7CCCCC7)c6)cc45)nc23)c1` [Compound 93, 5-(5-(Piperidin-1-ylmethyl)pyridin-3-yl)-3-(4-(pyridin-3-yl)-1H-imidazo[4,5-c]pyridin-2-yl)-1H-pyrazolo[3,4-b]pyridine], the IC50 turned out to be 3.88 µM.

In turn, `O=C(Nc1cncc(-c2cnc3[nH]nc(-c4nc5c(-c6ccncc6)nccc5[nH]4)c3c2)c1)C1CCCCC1` [Compound 126, N-(5-(3-(4-(Pyridin-4-yl)-1H-imidazo[4,5-c]pyridin-2-yl)-1H-pyrazolo[3,4-b]pyridin-5-yl)pyridin-3-yl)cyclohexanecarboxamide] showed an IC50 of 1.12 µM.

Take `Cc1cn(-c2nccc3[nH]c(-c4n[nH]c5ncc(-c6cncc(NC(=O)C(C)(C)C)c6)cc45)nc23)cn1` [Compound 190, N-(5-(3-(4-(4-Methyl-1H-imidazol-1-yl)-1H-imidazo[4,5-c]pyridin-2-yl)-1H-pyrazolo[3,4-b]pyridin-5-yl)pyridin-3-yl)pivalamide]: 1.58 µM corresponded to half-maximal inhibition (IC50).

Regarding `CC(C)C(=O)Nc1cncc(-c2cnc3[nH]nc(-c4nc5c(N6CCN(C)CC6)nccc5[nH]4)c3c2)c1` [Compound 217, N-(5-(3-(4-(4-Methylpiperazin-1-yl)-1H-imidazo[4,5-c]pyridin-2-yl)-1H-pyrazolo[3,4-b]pyridin-5-yl)pyridin-3-yl)isobutyramide], the IC50 amounted to 0.673 µM.

For the molecule `CN1CCN(c2nccc3[nH]c(-c4n[nH]c5ncc(-c6cncc(NC(=O)C7CCCC7)c6)cc45)nc23)CC1` [Compound 229, N-(5-(3-(4-(4-Methylpiperazin-1-yl)-1H-imidazo[4,5-c]pyridin-2-yl)-1H-pyrazolo[3,4-b]pyridin-5-yl)pyridin-3-yl)cyclopentanecarboxamide], the IC50 was 1.55 µM.

`CN1CCN(c2nccc3[nH]c(-c4n[nH]c5ncc(-c6cncnc6)cc45)nc23)CC1` [Compound 234, 3-(4-(4-Methylpiperazin-1-yl)-1H-imidazo[4,5-c]pyridin-2-yl)-5-(pyrimidin-5-yl)-1H-pyrazolo[3,4-b]pyridine] gave a concentration for half-maximal inhibition (IC50) of 0.179 µM.

Consider `CCNCc1cncc(-c2cnc3[nH]nc(-c4nc5c(-c6ccoc6)nccc5[nH]4)c3c2)c1` [Compound 266, N-((5-(3-(4-(Furan-3-yl)-1H-imidazo[4,5-c]pyridin-2-yl)-1H-pyrazolo[3,4-b]pyridin-5-yl)pyridin-3-yl)methyl)ethanamine], for which the IC50 amounted to 0.339 µM.

`CCCCC(=O)Nc1cncc(-c2cnc3[nH]nc(-c4nc5c(-c6ccoc6)nccc5[nH]4)c3c2)c1` [Compound 278, N-(5-(3-(4-(Furan-3-yl)-1H-imidazo[4,5-c]pyridin-2-yl)-1H-pyrazolo[3,4-b]pyridin-5-yl)pyridin-3-yl)pentanamide] came in with an IC50 of 0.056 µM.

With `CCCC(=O)Nc1cncc(-c2cnc3[nH]nc(-c4nc5c(-c6cc(F)cc(CNS(C)(=O)=O)c6)nccc5[nH]4)c3c2)c1` [Compound 407, N-(5-(3-(4-(3-Fluoro-5-(methylsulfonamidomethyl)phenyl)-1H-imidazo[4,5-c]pyridin-2-yl)-1H-pyrazolo[3,4-b]pyridin-5-yl)pyridin-3-yl)butyramide], the concentration for half-maximal inhibition (IC50) stood at 0.0741 µM.

`CS(=O)(=O)NCc1cc(F)cc(-c2nccc3[nH]c(-c4n[nH]c5ncc(-c6cncc(CNCc7ccccc7)c6)cc45)nc23)c1` [Compound 413, N-(3-(2-(5-(5-((Benzylamino)methyl)pyridin-3-yl)-1H-pyrazolo[3,4-b]pyridin-3-yl)-1H-imidazo[4,5-c]pyridin-4-yl)-5-fluorobenzyl)methanesulfonamide] gave an IC50 of 0.143 µM.

`Fc1cccc(-c2nccc3[nH]c(-c4n[nH]c5ncc(C6=CCNCC6)cc45)nc23)c1` [Compound 886, 3-(4-(3-Fluorophenyl)-1H-imidazo[4,5-c]pyridin-2-yl)-5-(1,2,3,6-tetrahydropyridin-4-yl)-1H-pyrazolo[3,4-b]pyridine] returned a half-maximal inhibitory concentration (IC50) of 3.7 µM.

As to `Fc1cccc(-c2nccc3[nH]c(-c4n[nH]c5ncc(-c6cncc(OC7CCCCC7)c6)cc45)nc23)c1` [Compound 891, 5-(5-(Cyclohexyloxy)pyridin-3-yl)-3-(4-(3-fluorophenyl)-1H-imidazo[4,5-c]pyridin-2-yl)-1H-pyrazolo[3,4-b]pyridine], 0.935 µM corresponded to half-maximal inhibition (IC50).

The molecule `Fc1cccc(-c2nccc3[nH]c(-c4n[nH]c5ncc(-c6cncc(OCCN7CCCC7)c6)cc45)nc23)c1` [Compound 894, 3-(4-(3-Fluorophenyl)-1H-imidazo[4,5-c]pyridin-2-yl)-5-(5-(2-(pyrrolidin-1-yl)ethoxy)pyridin-3-yl)-1H-pyrazolo[3,4-b]pyridine] showed an IC50 of 1.5 µM.

The molecule `Oc1cncc(-c2cnc3[nH]nc(-c4nc5c(-c6cccc(F)c6)nccc5[nH]4)c3c2)c1` [Compound 897, 5-(3-(4-(3-Fluorophenyl)-1H-imidazo[4,5-c]pyridin-2-yl)-1H-pyrazolo[3,4-b]pyridin-5-yl)pyridin-3-ol] yielded an IC50 of 0.023 µM.

Molecule `Fc1cccc(-c2nccc3[nH]c(-c4n[nH]c5ncc(-c6cncc(OCc7ccccc7)c6)cc45)nc23)c1` [Compound 898, 5-(5-(Benzyloxy)pyridin-3-yl)-3-(4-(3-fluorophenyl)-1H-imidazo[4,5-c]pyridin-2-yl)-1H-pyrazolo[3,4-b]pyridine] yielded a 50% inhibitory concentration (IC50) of 3.27 µM.

`O=C(CC1CCCCC1)Nc1cncc(-c2cnc3[nH]nc(-c4nc5c(-c6cccc(F)c6)nccc5[nH]4)c3c2)c1` [Compound 899, 2-Cyclohexyl-N-(5-(3-(4-(3-fluorophenyl)-1H-imidazo[4,5-c]pyridin-2-yl)-1H-pyrazolo[3,4-b]pyridin-5-yl)pyridin-3-yl)acetamide] gave a half-maximal inhibitory concentration (IC50) of 1.97 µM.

`Fc1cccc(-c2nccc3[nH]c(-c4n[nH]c5ncc(-c6ccccn6)cc45)nc23)c1` [Compound 901, 3-(4-(3-Fluorophenyl)-1H-imidazo[4,5-c]pyridin-2-yl)-5-(pyridin-2-yl)-1H-pyrazolo[3,4-b]pyridine] returned an IC50 of over 10 µM.

Turning to `CC(C)CC(=O)Nc1cncc(-c2cnc3[nH]nc(-c4nc5c(-c6cc(F)cc(OCCN(C)C)c6)nccc5[nH]4)c3c2)c1` [Compound 1192, N-(5-(3-(4-(3-(2-(Dimethylamino)ethoxy)-5-fluorophenyl)-1H-imidazo[4,5-c]pyridin-2-yl)-1H-pyrazolo[3,4-b]pyridin-5-yl)pyridin-3-yl)-3-methylbutanamide], the IC50 came to 0.4 µM.

Consider `CC(C)CC(=O)Nc1cncc(-c2cnc3[nH]nc(-c4nc5c(-c6cc(F)cc(OCCN7CCCC7)c6)nccc5[nH]4)c3c2)c1` [Compound 1236, N-(5-(3-(4-(3-Fluoro-5-(2-(pyrrolidin-1-yl)ethoxy)phenyl)-1H-imidazo[4,5-c]pyridin-2-yl)-1H-pyrazolo[3,4-b]pyridin-5-yl)pyridin-3-yl)-3-methylbutanamide], for which the half-maximal inhibitory concentration (IC50) is 0.445 µM.

Molecule `CC(C)CC(=O)Nc1cncc(-c2cnc3[nH]nc(-c4nc5c(-c6cc(O)cc(F)c6)nccc5[nH]4)c3c2)c1` [Compound 1280, N-(5-(3-(4-(3-Fluoro-5-hydroxyphenyl)-1H-imidazo[4,5-c]pyridin-2-yl)-1H-pyrazolo[3,4-b]pyridin-5-yl)pyridin-3-yl)-3-methylbutanamide] registered an IC50 of 0.09 µM.

Take `COc1cc(F)cc(-c2nccc3[nH]c(-c4n[nH]c5ncc(-c6cncc(NC(=O)CC(C)C)c6)cc45)nc23)c1` [Compound 1324, N-(5-(3-(4-(3-Fluoro-5-methoxyphenyl)-1H-imidazo[4,5-c]pyridin-2-yl)-1H-pyrazolo[3,4-b]pyridin-5-yl)pyridin-3-yl)-3-methylbutanamide]: the 50% inhibitory concentration (IC50) worked out at 0.085 µM.
